Earlier results in US7629342B2, “Azabicyclic heterocycles as cannabinoid receptor modulators” (Bristol-Myers Squibb Company, priority 2005, dated 2009).

How the values were obtained:
[1] = chronic administration for two weeks
[2] = highest dose; relative to 14.8% for placebo
[3] = 16 week trial period, Phase IIb

Row | SMILES | body weight [1] | patients stayed abstinent from cigarette smoke [2] [%] | body weight in human subjects [3]
1 | Cc1c(C(=O)NN2CCCCC2)nn(-c2ccc(Cl)cc2Cl)c1-c1ccc(I)cc1 [AM-251] | substantial body weight reduction | – | –
2 | Cc1c(C(=O)NN2CCCCC2)nn(-c2ccc(Cl)cc2Cl)c1-c1ccc(Cl)cc1 [SR-141716] | – | 30.2 | dose-dependently reduced body weight
